Laboratory results from publication PMC8587849, “Antimicrobial and Anticancer Application of Silver(I) Dipeptide Complexes” (Molecules, 2021).
Values joined by “and” are separate entries in the source; they are usually repeats but may differ in a detail not shown here. Identical values can stand only once.

Columns and labels:
[1] = system: Microsporum gypseum CCM F-8342; assay: Antifungal activity (filamentous fungi), macrodilution on solidified PDA; format: cell-based; conditions: M.gypseum; read-out: IC50 and MIC100 (class symbol)
Description: (§4) Cultures of bacteria (in Mueller-Hinton broth, MHB) and yeasts (in Sabouraud’s growth medium, SB) were incubated under shaking (250 rpm) at 37 °C. The growth of bacteria and yeasts was evaluated by measuring the absorbance of the growing cultures (A550) until the cultures reached the stationary growth phase. […] During culturing, the diameters of growing fungal colonies were measured at regular intervals [71, 72]. […] The final concentration of DMSO never exceeded 1.0 vol. % in the control or treated samples. […] The IC50 and MIC90 with respect to MIC80 values were evaluated from toxicity curves.

HeLa = assay: MTS antiproliferative assay; format: cell-based, human; conditions: 72 h
Description: (§1) After 72 h of incubation, 10 µL of MTS was added to each well. […] IC50 values were calculated from MTS analyses.

MCF-7 = assay: MTS antiproliferative assay; format: cell-based, human; conditions: 72 h
Description: as §1

[2] = system: Candida parapsilosis ATCC 22019; assay: Antifungal activity (yeast), macrodilution method; format: cell-based; conditions: C. parapsilosis
Description: (§5) Cultures of bacteria (in Mueller-Hinton broth, MHB) and yeasts (in Sabouraud’s growth medium, SB) were incubated under shaking (250 rpm) at 37 °C. The growth of bacteria and yeasts was evaluated by measuring the absorbance of the growing cultures (A550) until the cultures reached the stationary growth phase. […] The final concentration of DMSO never exceeded 1.0 vol. % in the control or treated samples. […] The IC50 and MIC90 with respect to MIC80 values were evaluated from toxicity curves.

CT DNA–HO system = assay: Fluorescence competitive binding with Hoechst 33258; parameters: species or system calf; conditions: displacement of Hoechst 33258 from CT DNA; 462 nm; 10 mM Tris-HCl pH 7.4
Description: The fluorescence competitive binding studies of silver(I) complexes with Hoechst 33 258 (HO) were performed on a Varian Cary Eclipse spectrophotometer. The emission spectra of DNA–HO were measured in the range of 400–550 nm using an excitation wavelength of 343 nm with a slit width of 5 nm for the excitation and 5 nm for the emission beam. […] Ksv quenching constant was determined according to the classical Stern-Volmer Equation (1) in [63, 75]:F0/F = 1 + KSV [Q](1) where F0 and F are the fluorescence intensities in the absence and the presence of the quencher at 462 nm, KSV is the Stern-Volmer quenching constant and [Q] is the concentration of the quencher.

Candida albicans SC 5314 = assay: Antifungal activity (yeast), macrodilution method; format: cell-based; conditions: C. albicans
Description: as §4

[3] = system: Staphylococcus epidermidis CCM 7221; assay: Antibacterial activity, macrodilution method; format: cell-based; conditions: S.epidermidis
Description: as §5

A.flavus = assay: Antifungal activity (filamentous fungi); format: cell-based; conditions: read-out: IC50 and MIC100 (class symbol)
Description: as §4

S. aureus biofilm = assay: Influence on S. aureus biofilm formation, crystal violet staining; format: cell-based; conditions: for A570 (biofilm, crystal violet): control A570 = 0.47; for I: biofilm intensity: control strong
Description: The biofilm was qualified by the crystal violet staining method. Briefly, overnight cultures of bacteria S.aureus (in MHB) and yeasts C.parapsislosis (in SB) were prepared. The fresh prepared growth media MHB and SB were inoculated with the overnight culture for a final concentration of 5 × 10^6 cells mL^−1. The microbial biofilm was formed in 96-well microplates for adherent cells. […] Prepared cultures were incubated for 2 h at 37 °C. […] The treatment with DMSO (solvent) alone served as a control. The inoculated microplates were incubated at 37 °C for the next 46 h. […] Microplates with mature biofilm were decanted and washed using 200 μL of saline solution. The plate was left for 15 min to dry completely at laboratory temperature. Then, 110 μL of 0.4% crystal violet dye was added to each well, and the plate was incubated for 15 min at laboratory temperature. After the decantation, the plate was washed 3 times with 200 μL of saline solution. Then, 200 μL of 96% ethanol was added. The microplate was left to incubate for 15 min at laboratory temperature. After the transfer of the well content to a clean microplate, the absorbance (570 nm) of released crystal violet (proportionate to biofilm cell density) was measured,, and the values were evaluated as weak biofilm formation A570 <0.1; 0.199>, medium biofilm formation A570 <0.2; 0.3>, strong biofilm formation A570 <0.301; 0.999>, or very strong biofilm formation A570 ≥ 1.00.

MDA-MB-231 = assay: MTS antiproliferative assay; format: cell-based, human; conditions: 72 h
Description: (§2) Cells were maintained in standard conditions with an atmosphere containing 5% CO2 at 37 °C.
as §1

Jurkat = assay: MTS antiproliferative assay; format: cell-based, human; conditions: 72 h
Description: as §2, §1

BLM = assay: MTS antiproliferative assay; format: cell-based, human; conditions: BLM; MTS, 72 h
Description: as §2, §1

HCT116 = assay: MTS antiproliferative assay; format: cell-based, human; conditions: 72 h
Description: as §2, §1

CT DNA = assay: UV-Vis absorption titration with CT DNA; format: binding, calf; conditions: 0.01 M Tris-HCl pH 7.4; complex 7.85 × 10^−5 M
Description: UV–vis spectra were measured in 0.01 M Tris-HCl buffer (pH 7.4) using a Varian Cary 100 Bio spectrophotometer in the range of 230–320 nm and recorded at room temperature (24 °C) using a quartz cuvette of 1 cm path length. The concentration of investigated Ag(I) complexes was 7.85 × 10^−5 M. During the titration, an aliquot of buffered CT DNA solution was added to each cuvette (sample and reference) to eliminate the absorbance of DNA itself. The DNA concentration per nucleotide was determined by absorption spectroscopy using the molar absorption coefficient (6600 M^−1cm^−1) at 260 nm.

[4] = system: Staphylococcus aureus CCM 3953; assay: Antibacterial activity, macrodilution method; format: cell-based; conditions: S. aureus
Description: as §5

BJ-5ta = assay: MTS assay on fibroblasts; format: cell-based; conditions: BJ-5ta human skin fibroblasts, 72 h
Description: as §1

[5] = system: Escherichia coli (E. coli) CCM 3988; assay: Antibacterial activity, macrodilution method; format: cell-based
Description: as §5

[6] = system: methicillin-resistant Staphylococcus aureus L12; assay: Antibacterial activity, macrodilution method; format: cell-based; conditions: S. aureus L12 (MRSA)
Description: as §5

[7] = system: Rhizopus oryzae CCM F-8284; assay: Antifungal activity (filamentous fungi), macrodilution on solidified PDA; format: cell-based; conditions: for IC50: read-out: IC50; for MIC100: suffix s = fungistatic
Description: as §4

MDA-MB-231 cells = assay: Cell cycle analysis by flow cytometry; format: cell-based, human; conditions: treated with IC50
Description: (§3) Prior to each analysis, cells were washed in PBS, followed by resuspending in staining solution (0.5 mg/mL ribonuclease A, 0.2% final concentration Triton X-100, propidium iodide 0.025 mg/mL in 500 µL PBS) (all Sigma Aldrich), and incubated for 30 min at room temperature in the dark. For analysis of stained cells, a BD FACSCalibur flow cytometer (BD Bio-sciences) was used. A minimum of 1 × 10^4 events were analysed per analysis.

Jurkat cells = assay: Cell cycle analysis by flow cytometry; format: cell-based, human; conditions: treated with IC50
Description: as §3

BLM cells = assay: Cell cycle analysis by flow cytometry; format: cell-based, human; conditions: treated with IC50
Description: as §3

HCT116 cells = assay: Cell cycle analysis by flow cytometry; format: cell-based, human; conditions: treated with IC50
Description: as §3

[8] = system: Alternaria alternata CCM F-128; assay: Antifungal activity (filamentous fungi), macrodilution on solidified PDA; format: cell-based; conditions: A. alternata; for IC50: read-out: IC50; for MIC100: suffix s = fungistatic
Description: as §4

## [Ag2(HGlyAsp)(NO3)]n [AgGlyAsp]
[1]
  IC50: > 100 µM
HeLa
  IC50: 33.3 µM
MCF-7
  IC50: 33.8 µM
[2]
  IC50: 50 µM
  MIC80: 100 µM
CT DNA–HO system
  KSV (Stern-Volmer quenching constant): 8.33 ± 0.07 × 10^4 M^−1
Candida albicans SC 5314
  IC50: 73 µM
  MIC80: 100 µM
[3]
  IC50: 25 µM
  MIC90: 50 µM
A.flavus
  IC50: > 100 µM
S. aureus biofilm; complex concentration 5 µM
  A570 (biofilm, crystal violet): 0.36
  I: biofilm intensity: strong (strong biofilm formation A570 <0.301; 0.999>)
S. aureus biofilm; complex concentration 10 µM
  A570 (biofilm, crystal violet): 0.35
  I: biofilm intensity: strong (strong biofilm formation A570 <0.301; 0.999>)
S. aureus biofilm; complex concentration 50 µM
  A570 (biofilm, crystal violet): 0.24
S. aureus biofilm; complex concentration 100 µM
  A570 (biofilm, crystal violet): 0.25
  I: biofilm intensity: medium (medium biofilm formation A570 <0.2; 0.3>)
MDA-MB-231
  IC50: 33.6 µM
Jurkat
  IC50: 36.8 µM
BLM
  IC50: 35.6 µM
HCT116
  IC50: 35.5 µM
CT DNA
  Hypochromism: 30% and 30.8%
  Δλmax (red shift on addition of CT DNA): 13 nm
[4]
  IC50: 51 µM
  MIC90: 96 µM
BJ-5ta
  IC50: 57.6 µM
[5]
  IC50: 17 µM
  MIC90: 23 µM
[6]
  IC50: 31 µM
  MIC90: 49 µM
[7]
  IC50: 73 µM
  MIC100: 100 µM
MDA-MB-231 cells; 24 h
  cells in G2/M: 30.6%
MDA-MB-231 cells; 48 h
  cells in G2/M: 25.8 ± 0.5%
  cells in S: 10.6 ± 1.9%
MDA-MB-231 cells; 72 h
  cells in G2/M: 9.6 ± 1.2%
  cells in S: 7.1 ± 2.4%
Jurkat cells; 24 h
  cells in G2/M: 15.5 ± 2.7%
  cells in S: 14.0 ± 0.6%
Jurkat cells; 48 h
  cells in G2/M: 6.3 ± 0.3%
  cells in S: 12.4 ± 1.1%
BLM cells; 24 h
  cells in G2/M: 14.8 ± 0.2%
  cells in S: 13.8 ± 3.0%
  cells in Sub-G0: 51.7%
BLM cells; 48 h
  cells in G2/M: 10.9 ± 2.8%
  cells in S: 10.8 ± 2.5%
  cells in Sub-G0: 56.1%
BLM cells; 72 h
  cells in Sub-G0: 59.3%
HCT116 cells; 24 h
  cells in G2/M: 16.8 ± 2.4%
  cells in S: 16.3 ± 2.3%
HCT116 cells; 48 h
  cells in G2/M: 11.7 ± 3.4%
  cells in S: 10.3 ± 1.3%
[8]
  IC50: 35 µM
  MIC100: > 100 µM

## [Ag(GlyGly)]n(NO3)n [AgGlyGly]
[1]
  IC50: > 100 µM
HeLa
  IC50: 38.3 µM
MCF-7
  IC50: 9 µM
[2]
  IC50: 30 µM
  MIC80: 70 µM
CT DNA–HO system
  KSV (Stern-Volmer quenching constant): 4.51 ± 0.05 × 10^4 M^−1
Candida albicans SC 5314
  IC50: 70 µM
  MIC80: 100 µM
[3]
  IC50: 10 µM
  MIC90: 20 µM
A.flavus
  IC50: > 100 µM
S. aureus biofilm; complex concentration 5 µM
  A570 (biofilm, crystal violet): 0.72
  I: biofilm intensity: strong (strong biofilm formation A570 <0.301; 0.999>)
S. aureus biofilm; complex concentration 10 µM
  A570 (biofilm, crystal violet): 0.39
  I: biofilm intensity: strong (strong biofilm formation A570 <0.301; 0.999>)
S. aureus biofilm; complex concentration 25 µM
  A570 (biofilm, crystal violet): 0.26
S. aureus biofilm; complex concentration 50 µM
  A570 (biofilm, crystal violet): 0.22
S. aureus biofilm; complex concentration 100 µM
  A570 (biofilm, crystal violet): 0.28
  I: biofilm intensity: medium (medium biofilm formation A570 <0.2; 0.3>)
MDA-MB-231
  IC50: 13 µM
Jurkat
  IC50: 14.8 µM
BLM
  IC50: 21.2 µM
HCT116
  IC50: 34.5 µM
CT DNA
  Hypochromism: 20.1%
  Δλmax (red shift on addition of CT DNA): 22 nm
[4]
  IC50: 12 µM
  MIC90: 22 µM
BJ-5ta
  IC50: 47.1 µM
[5]
  IC50: 6 µM
  MIC90: 10 µM
[6]
  IC50: 15 µM
  MIC90: 38 µM
[7]
  IC50: 30 µM
  MIC100: 50 µM
MDA-MB-231 cells; 72 h
  cells in G2/M: 14.9 ± 0.1%
  cells in S: 14.4 ± 0.1%
Jurkat cells; 72 h
  cells in G2/M: 8.9 ± 0.1%
  cells in S: 11.1 ± 0.8%
BLM cells; 48 h
  cells in G2/M: 32.7 ± 2.4%
  cells in S: 15.3 ± 1.5%
HCT116 cells; 72 h
  cells in G2/M: 7.1 ± 2.3%
  cells in S: 9.8 ± 0.1%
[8]
  IC50: 71 µM
  MIC100: > 100 µM
